Patent US12522612B2, “PDE4 inhibitors, pharmaceutical compositions, and therapeutic applications” (BioTheryX, Inc., priority 2019, dated 2026)

Test system: TNF-α
Assay: Cell-based TNF-α inhibition assay in LPS-induced PBMCs (Meso Scale)
Details: PBMC, PBMCs pretreated 1 h, LPS 100 ng/mL 18-24 h, relative to stimulated DMSO control; for inhibition at 1 µM: compound concentration 1 μM; for inhibition at 0.1 µM: compound concentration 0.1 μM
Experimental: Frozen primary blood mononuclear cells (PBMCs) were quick thawed, washed once with RPMI 1640 media supplemented with 10% fetal bovine serum, 1% penicillin, and 1% streptomycin, and plated in a 96 well plate at 200,000 cells per well. The cells were pretreated with DMSO only as a control or a compound for 1 h, and then induced with LPS (lipopolysaccharide) (100 ng/mL) for 18-24 h. The supernatant was analyzed for TNF-α using the Meso Scale assay. Compound activity was determined as a percentage of the stimulated DMSO control. The results are summarized in Table 1, where A represents a percent inhibition value ≥60%; B represents a percent inhibition value <60% and ≥40%; C represents a percent inhibition value <40% and >20%; and D represents a single percent inhibition value <20%.

`CCOc1cc([C@@H](CS(C)(=O)=O)N2C(=O)c3cccc(NC(=O)COCCOCCOCCOCCNc4cccc5c4C(=O)N(C4CCC(=O)NC4=O)C5=O)c3C2=O)ccc1OC` (stereo partly drawn) [Compound B48, 14-((2-(2,6-Dioxopiperidin-3-yl)-1,3-dioxoisoindolin-4-yl)amino)-N-(2-((S)-1-(3-ethoxy-4-methoxyphenyl)-2-(methylsulfonyl)ethyl)-1,3-dioxoisoindolin-4-yl)-3,6,9,12-tetraoxatetradecan-1-amide] was tested, and the inhibition at 1 µM was no less than 60%.

`CC(=O)NC(=O)C(C)N1Cc2c(cc(F)cc2C2CCN(CCCCCCCCCOc3cc(C(=O)Nc4c(Cl)cncc4Cl)ccc3OC(F)F)CC2)C1=O` (stereo not drawn) [Compound B85, 3-((9-(4-(2-(1-Acetamido-1-oxopropan-2-yl)-6-fluoro-1-oxoisoindolin-4-yl)piperidin-1-yl)nonyl)oxy)-N-(3,5-dichloropyridin-4-yl)-4-(difluoromethoxy)benzamide] was tested, and the inhibition at 1 µM was 20 to 40%.

For `CCOc1cc([C@@H](CS(C)(=O)=O)N2C(=O)c3cccc(NC(=O)CCCCCCCCNCc4ccc(OCc5scc6c5CN(C5CCC(=O)NC5=O)C6=O)cc4)c3C2=O)ccc1OC` (stereo partly drawn) [Compound B70, 9-((4-((5-(2,6-Dioxopiperidin-3-yl)-4-oxo-5,6-dihydro-4H-thieno[3,4-c]pyrrol-1-yl)methoxy)benzyl)amino)-N-(2-((S)-1-(3-ethoxy-4-methoxyphenyl)-2-(methylsulfonyl)ethyl)-1,3-dioxoisoindolin-4-yl)nonanamide], the inhibition at 0.1 µM was no less than 60% and the inhibition at 1 µM was no less than 60%.

`CCOc1cc([C@@H](CS(C)(=O)=O)N2Cc3c(csc3NC(=O)C(F)(F)F)C2=O)ccc1OC` [Compound A1, (S)—N-(5-(1-(3-ethoxy-4-methoxyphenyl)-2-(methylsulfonyl)ethyl)-4-oxo-5,6-dihydro-4H-thieno[3,4-c]pyrrol-1-yl)-2,2,2-trifluoroacetamide] gave an inhibition at 0.1 µM of less than 20% and an inhibition at 1 µM of 40 to 60%.

For `Cc1ncsc1-c1ccc(CNC(=O)[C@@H]2C[C@@H](O)CN2C(=O)[C@@H](NC(=O)CCCCCCCCOc2cc(C(=O)Nc3c(Cl)cncc3Cl)ccc2OCC2CC2)C(C)(C)C)cc1` [Compound B86, (2S,4R)-1-((S)-2-(9-(2-(Cyclopropylmethoxy)-5-((3,5-dichloropyridin-4-yl)carbamoyl)phenoxy)nonanamido)-3,3-dimethylbutanoyl)-4-hydroxy-N-(4-(4-methylthiazol-5-yl)benzyl)pyrrolidine-2-carboxamide], the inhibition at 1 µM was no less than 60%.

For `COc1ccc(N2C(=O)c3ccsc3C2=O)cc1OCCCCCCCN1CCC(c2cc(F)cc3c2CN(C2CCC(=O)NC2=O)C3=O)CC1` (stereo not drawn) [Compound B65, 5-(3-((7-(4-(2-(2,6-Dioxopiperidin-3-yl)-6-fluoro-1-oxoisoindolin-4-yl)piperidin-1-yl)heptyl)oxy)-4-methoxyphenyl)-4H-thieno[2,3-c]pyrrole-4,6(5H)-dione], the inhibition at 1 µM was less than 20%.

For `O=C1CCC(N2C(=O)c3cccc(NCCCCCCCOc4cc(C(=O)Nc5c(Cl)cncc5Cl)ccc4OC(F)F)c3C2=O)C(=O)N1` (stereo not drawn) [Compound B72, N-(3,5-Dichloropyridin-4-yl)-4-(difluoromethoxy)-3-((7-((2-(2,6-dioxopiperidin-3-yl)-1,3-dioxoisoindolin-4-yl)amino)heptyl)oxy)benzamide], the inhibition at 0.1 µM was no less than 60% and the inhibition at 1 µM was no less than 60%.

With `CCOc1cc([C@@H](CS(C)(=O)=O)N2C(=O)c3cccc(NC(=O)CCOCc4ccc(COCCNc5cccc6c5C(=O)N(C5CCC(=O)NC5=O)C6=O)cc4)c3C2=O)ccc1OC` (stereo partly drawn) [Compound B64, 3-((4-((2-((2-(2,6-Dioxopiperidin-3-yl)-1,3-dioxoisoindolin-4-yl)amino)ethoxy)-methyl)benzyl)oxy)-N-(2-((S)-1-(3-ethoxy-4-methoxyphenyl)-2-(methylsulfonyl)ethyl)-1,3-dioxoisoindolin-4-yl)propanamide] the inhibition at 0.1 µM was no less than 60% and the inhibition at 1 µM was no less than 60%.

In the case of `Cc1ncsc1-c1ccc(CNC(=O)[C@@H]2C[C@@H](O)CN2C(=O)[C@@H](NC(=O)CCCCCCCCOc2cc(C(=O)Nc3c(Cl)cncc3Cl)ccc2OC(F)F)C(C)(C)C)cc1` [Compound B68, (2S,4R)-1-((S)-2-(9-(5-((3,5-Dichloropyridin-4-yl)carbamoyl)-2-(difluoromethoxy)phenoxy)nonanamido)-3,3-dimethylbutanoyl)-4-hydroxy-N-(4-(4-methylthiazol-5-yl)benzyl)pyrrolidine-2-carboxamide], the inhibition at 0.1 µM was no less than 60% and the inhibition at 1 µM was no less than 60%.

`O=C1CCC(N2Cc3c(cc(F)cc3C3CCN(CCCCCOc4cc(C(=O)Nc5c(Cl)cncc5Cl)ccc4OC(F)F)CC3)C2=O)C(=O)N1` (stereo not drawn) [Compound B46, N-(3,5-Dichloropyridin-4-yl)-4-(difluoromethoxy)-3-((5-(4-(2-(2,6-dioxopiperidin-3-yl)-6-fluoro-1-oxoisoindolin-4-yl)piperidin-1-yl)pentyl)oxy)benzamide] was tested, and the inhibition at 1 µM was no less than 60%.

Work on `O=C1CCC(N2Cc3c(cc(F)cc3C3CCN(CCCCCCCCCOc4ccc(C(=O)Nc5c(Cl)cncc5Cl)cc4OCC4CC4)CC3)C2=O)C(=O)N1` (stereo not drawn) [Compound B84, 3-(Cyclopropylmethoxy)-N-(3,5-dichloropyridin-4-yl)-4-((9-(4-(2-(2,6-dioxopiperidin-3-yl)-6-fluoro-1-oxoisoindolin-4-yl)piperidin-1-yl)nonyl)oxy)benzamide] yielded an inhibition at 1 µM of no less than 60%.

With `COc1ccc(N2C(=O)c3ccc(NCCCCCCCN4CCC(c5cc(F)cc6c5CN(C5CCC(=O)NC5=O)C6=O)CC4)cc3C2=O)cc1OC1CCCC1` (stereo not drawn) [Compound B54, 2-(3-(Cyclopentyloxy)-4-methoxyphenyl)-5-((7-(4-(2-(2,6-dioxopiperidin-3-yl)-6-fluoro-1-oxoisoindolin-4-yl)piperidin-1-yl)heptyl)amino)isoindoline-1,3-dione] the inhibition at 1 µM was 20 to 40%.

`CCOc1cc([C@H](CS(=O)(=O)C2CC2)N2C(=O)c3csc(NC(=O)C(F)(F)F)c3C2=O)ccc1OC` [Compound A8, (R)—N-(5-(2-(cyclopropylsulfonyl)-1-(3-ethoxy-4-methoxyphenyl)ethyl)-4,6-dioxo-5,6-dihydro-4H-thieno[3,4-c]pyrrol-1-yl)-2,2,2-trifluoroacetamide] showed an inhibition at 0.1 µM of less than 20% and an inhibition at 1 µM of less than 20%.

With `COc1ccc(C2CNC(=O)C2)cc1OCCCCCCCN1CCC(c2cc3c(cc2F)C(=O)N(C2CCC(=O)NC2=O)C3)CC1` (stereo not drawn) [Compound B55, 3-(6-Fluoro-5-(1-(7-(2-methoxy-5-(5-oxopyrrolidin-3-yl)phenoxy)heptyl)piperidin-4-yl)-1-oxoisoindolin-2-yl)piperidine-2,6-dione] the inhibition at 1 µM was 20 to 40%.

For `CCOc1cc([C@@H](CS(=O)(=O)C2CC2)N2C(=O)c3csc(NC(=O)COC)c3C2=O)ccc1OC` [Compound A11, (S)—N-(5-(2-(cyclopropylsulfonyl)-1-(3-ethoxy-4-methoxyphenyl)ethyl)-4,6-dioxo-5,6-dihydro-4H-thieno[3,4-c]pyrrol-1-yl)-2-methoxyacetamide], the inhibition at 0.1 µM was 20 to 40% and the inhibition at 1 µM was no less than 60%.

In the case of `COc1ccc([C@@H](CS(C)(=O)=O)N2C(=O)c3csc(NC(C)=O)c3C2=O)cc1OC1CC1` [Compound A4, (S)—N-(5-(1-(3-cyclopropoxy-4-methoxyphenyl)-2-(methylsulfonyl)ethyl)-4,6-dioxo-5,6-dihydro-4H-thieno[3,4-c]pyrrol-1-yl)acetamide], the inhibition at 0.1 µM was 40 to 60% and the inhibition at 1 µM was no less than 60%.

`CCOc1cc([C@@H](CS(=O)(=O)C2CC2)N2C(=O)c3csc(NC(C)=O)c3C2=O)ccc1OC` [Compound A6, (S)—N-(5-(2-(cyclopropylsulfonyl)-1-(3-ethoxy-4-methoxyphenyl)ethyl)-4,6-dioxo-5,6-dihydro-4H-thieno[3,4-c]pyrrol-1-yl)acetamide] gave an inhibition at 0.1 µM of less than 20% and an inhibition at 1 µM of 20 to 40%.

Work on `O=C1CCC(N2Cc3c(cc(F)cc3C3CCN(CCCCCCCOc4ccc(N5C(=O)c6ccccc6C5=O)cc4OC4CCCC4)CC3)C2=O)C(=O)N1` (stereo not drawn) [Compound B59, 2-(3-(Cyclopentyloxy)-4-((7-(4-(2-(2,6-dioxopiperidin-3-yl)-6-fluoro-1-oxoisoindolin-4-yl)piperidin-1-yl)heptyl)oxy)phenyl)isoindoline-1,3-dione] yielded an inhibition at 1 µM of less than 20%.

Compound `CCOc1cc([C@@H](CS(C)(=O)=O)N2C(=O)c3cccc(NC(=O)CCCCCCNCc4ccc(OCc5scc6c5CN([C@H]5CCC(=O)NC5=O)C6=O)cc4)c3C2=O)ccc1OC` [Compound B44, 7-((4-((5-((S)-2,6-Dioxopiperidin-3-yl)-4-oxo-5,6-dihydro-4H-thieno[3,4-c]pyrrol-1-yl)methoxy)benzyl)amino)-N-(2-((S)-1-(3-ethoxy-4-methoxyphenyl)-2-(methylsulfonyl)ethyl)-1,3-dioxoisoindolin-4-yl)heptanamide] has an inhibition at 1 µM of no less than 60%.

Compound `COc1ccc(N2Cc3ccc(N)cc3C2=O)cc1OCCCCCCCN1CCC(c2cc(F)cc3c2CN(C2CCC(=O)NC2=O)C3=O)CC1` (stereo not drawn) [Compound B60, 3-(4-(1-(7-(5-(6-Amino-1-oxoisoindolin-2-yl)-2-methoxyphenoxy)heptyl)piperidin-4-yl)-6-fluoro-1-oxoisoindolin-2-yl)piperidine-2,6-dione] has an inhibition at 1 µM of 20 to 40%.

In the case of `CCOc1cc([C@@H](CS(C)(=O)=O)N2Cc3c(NC(=O)C4CC4)csc3C2=O)ccc1OC` [Compound A3, (S)—N-(5-(1-(3-ethoxy-4-methoxyphenyl)-2-(methylsulfonyl)ethyl)-6-oxo-5,6-dihydro-4H-thieno[2,3-c]pyrrol-3-yl)cyclopropanecarboxamide], the inhibition at 0.1 µM was 20 to 40% and the inhibition at 1 µM was 20 to 40%.

`CCOc1cc([C@@H](CS(C)(=O)=O)N2Cc3c(NC(=O)COC)csc3C2=O)ccc1OC` [Compound A2, (S)—N-(5-(1-(3-ethoxy-4-methoxyphenyl)-2-(methylsulfonyl)ethyl)-6-oxo-5,6-dihydro-4H-thieno[2,3-c]pyrrol-3-yl)-2-methoxyacetamide] showed an inhibition at 0.1 µM of 20 to 40% and an inhibition at 1 µM of 20 to 40%.
